Measurements taken from patent US20250154226A1, “LONG-ACTING GLP-1/GLP-2 DUAL AGONIST COMPOUND” (CHENGDU AODA BIOTECHNOLOGY CO., LTD, priority 2022, published 2025).
Starred links: 1 amine or outer side, 2 acyl side, 3 side chain; linkers in the order of their positions; H or OH if unused. Non-standard residues stand in square brackets, D forms with d. Residues, ends and D or L forms follow the SMILES beside them. Groups on a side chain read outwards from the residue. *: point of attachment. C18 diacid = O=C(O)CCCCCCCCCCCCCCCCC(=O)*; γGlu = O=C(O)[C@H](CCC(=O)[*:2])N[*:1]; AEEEA = NCCOCCOCCOCC(=O)O; Aib = CC(C)(N)C(=O)O

Assays:
GLP-2R = molecular target: T1, GLP-2R (Homo sapiens, UniProt O95838); assay: Determination of GLP-2 activity: cAMP chemiluminescence (RLU) in CHO-K1 cell line stably expressing GLP-2R; assay type: cell-based; details: read-out: GLP-2 activity [EC50 (nmol)]
T1 construct: expressed in transfected cells; host or cells: CHO-K1
T1 sequence (O95838 1-553): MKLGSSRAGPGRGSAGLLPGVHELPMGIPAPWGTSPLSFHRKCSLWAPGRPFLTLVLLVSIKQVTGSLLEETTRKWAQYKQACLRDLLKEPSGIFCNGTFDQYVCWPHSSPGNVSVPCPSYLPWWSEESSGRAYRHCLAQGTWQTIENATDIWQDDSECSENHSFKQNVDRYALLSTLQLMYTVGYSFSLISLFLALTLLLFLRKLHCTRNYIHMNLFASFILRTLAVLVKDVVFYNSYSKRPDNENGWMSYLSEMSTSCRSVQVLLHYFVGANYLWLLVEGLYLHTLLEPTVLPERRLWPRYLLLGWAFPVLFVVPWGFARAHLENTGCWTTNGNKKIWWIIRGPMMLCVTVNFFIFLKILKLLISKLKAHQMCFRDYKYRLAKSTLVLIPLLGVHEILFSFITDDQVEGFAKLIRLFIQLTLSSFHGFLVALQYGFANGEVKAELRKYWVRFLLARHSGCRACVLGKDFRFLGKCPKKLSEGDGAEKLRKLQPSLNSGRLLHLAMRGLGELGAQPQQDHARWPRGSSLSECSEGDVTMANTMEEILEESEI
Method: (§1) GLP-2R, under the stimulation of its specific agonist, can activate the intracellular adenylate cyclase pathway, and increase the level of cAMP, finally leading to the generation and release of insulin. The stimulation of the cell lines stably transfected with […] by the agonist to be tested can lead to rapid increase in the intracellular cAMP level, and the relative light units (RLUs) after stimulating the cells at each dose are determined by chemiluminescence method to calculate the EC50 of the agonist. This method for determining activity is commonly used for GLP-2 receptor agonist activity analysis at home and abroad.
CHO-K1 cell line stably expressing GLP-2R was stimulated with the agonist at different concentrations. The EC50 value of the agonist was calculated by determining the relative light units after stimulating the cells at each dose.

GLP-1R = molecular target: T2, GLP-1R (Homo sapiens, UniProt P43220); assay: Determination of GLP-1 activity: cAMP chemiluminescence (RLU) in CHO-K1 cell line stably expressing GLP-1R; assay type: cell-based; details: read-out: GLP-1 activity [EC50 (pmol)]
T2 construct: expressed in transfected cells; host or cells: CHO-K1
Method: as §1, with “GLP-1R,” for “GLP-2R,”, “GLP-1” for “GLP-2”
CHO-K1 cell line stably expressing GLP-1R was stimulated with the agonist at different concentrations. The EC50 value of the agonist was calculated by determining the relative light units after stimulating the cells at each dose.

[1] = Preliminary determination of pharmacokinetic properties in cynomolgus monkeys; assay type: in vivo; details: cynomolgus monkey; male cynomolgus monkeys; subcutaneous (SC) 0.1 mg/kg; plasma, LC-MS
Method: The test animals were cynomolgus monkeys, two male cynomolgus monkeys in each compound group, and the drug was subcutaneously administered at 0.1 mg/kg. The blood was collected intravenously before (0 h) the administration, and 1 h, 2 h, 3 h, 4 h, 8 h, 12 h, 18 h, 24 h, 48 h, 96 h, 144 h, and 168 h after the administration of the compounds, and then centrifuged to isolate plasma samples.

T2 sequence (P43220 24-463, species assumed): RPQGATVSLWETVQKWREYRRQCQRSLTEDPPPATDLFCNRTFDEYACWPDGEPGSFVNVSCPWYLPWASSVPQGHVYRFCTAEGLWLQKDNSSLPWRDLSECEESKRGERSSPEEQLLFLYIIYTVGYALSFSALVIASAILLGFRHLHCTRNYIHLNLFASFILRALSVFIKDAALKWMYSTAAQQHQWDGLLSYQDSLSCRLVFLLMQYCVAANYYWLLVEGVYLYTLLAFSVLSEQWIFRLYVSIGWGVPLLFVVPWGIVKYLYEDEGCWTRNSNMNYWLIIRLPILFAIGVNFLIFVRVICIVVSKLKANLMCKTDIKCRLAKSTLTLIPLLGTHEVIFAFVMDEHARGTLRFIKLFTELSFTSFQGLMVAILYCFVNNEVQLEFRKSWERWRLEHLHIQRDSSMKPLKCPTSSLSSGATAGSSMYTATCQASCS

Row | EC50 (GLP-2R) | EC50 (GLP-1R) | half-life [1] | SMILES
1 | 6.04 nM | 0.0947 nM |  | CC[C@H](C)[C@H](NC(=O)[C@H](Cc1ccccc1)NC(=O)[C@H](CC(=O)O)NC(=O)[C@H](CCCNC(=N)N)NC(=O)[C@H](C)NC(=O)[C@H](C)NC(=O)[C@H](CCC(N)=O)NC(=O)[C@H](CCCCNC(=O)CC[C@H](NC(=O)CCCCCCCCCCCCCCCCC(=O)O)C(=O)O)NC(=O)[C@H](CC(=O)O)NC(=O)[C@H](CC(C)C)NC(=O)[C@@H](NC(=O)[C@@H](NC(=O)[C@H](C)NC(=O)[C@H](CC(C)C)NC(=O)[C@H](CCC(=O)O)NC(=O)[C@H](CO)NC(=O)[C@@H](NC(=O)[C@H](Cc1ccccc1)NC(=O)[C@H](CO)NC(=O)CNC(=O)[C@H](CCC(=O)O)NC(=O)C(C)(C)NC(=O)[C@@H](N)Cc1c[nH]cn1)[C@@H](C)O)[C@@H](C)O)[C@@H](C)CC)C(=O)N[C@@H](C)C(=O)N[C@@H](Cc1c[nH]c2ccccc12)C(=O)N[C@@H](CC(C)C)C(=O)N[C@H](C(=O)N[C@@H](CCC(N)=O)C(=O)N[C@@H](Cc1c[nH]cn1)C(=O)N[C@@H](CCCCN)C(=O)N[C@H](C(=O)N[C@H](C(=O)N[C@@H](CC(=O)O)C(N)=O)[C@@H](C)O)[C@@H](C)CC)[C@@H](C)CC [Compound 1, His-Aib-Glu-Gly-Ser-Phe-Thr-Ser-Glu-Leu-Ala-Thr-Ile-Leu-Asp-Lys(γGlu-octadecanedioic acid-Gln-Ala-Ala-Arg-Asp-Phe-Ile-Ala-Trp-Leu-Ile-Gln-His-Lys-Ile-Thr-Asp-NH2] (H-H[Aib]EGSFTSELATILDK([γGlu-C18 diacid])QAARDFIAWLIQHKITD-NH2)
2 |  |  | 59.2 h | CC[C@H](C)[C@H](NC(=O)[C@H](Cc1ccccc1)NC(=O)[C@H](CC(=O)O)NC(=O)[C@H](CCCNC(=N)N)NC(=O)[C@H](C)NC(=O)[C@H](C)NC(=O)[C@H](CCC(N)=O)NC(=O)[C@H](CCCCNC(=O)COCCOCCOCCNC(=O)CC[C@H](NC(=O)CCCCCCCCCCCCCCCCC(=O)O)C(=O)O)NC(=O)[C@H](CC(=O)O)NC(=O)[C@H](CC(C)C)NC(=O)[C@@H](NC(=O)[C@@H](NC(=O)[C@H](C)NC(=O)[C@H](CC(C)C)NC(=O)[C@H](CCC(=O)O)NC(=O)[C@H](CO)NC(=O)[C@@H](NC(=O)[C@H](Cc1ccccc1)NC(=O)[C@H](CO)NC(=O)CNC(=O)[C@H](CCC(=O)O)NC(=O)C(C)(C)NC(=O)[C@@H](N)Cc1c[nH]cn1)[C@@H](C)O)[C@@H](C)O)[C@@H](C)CC)C(=O)N[C@@H](C)C(=O)N[C@@H](Cc1c[nH]c2ccccc12)C(=O)N[C@@H](CC(C)C)C(=O)N[C@H](C(=O)N[C@@H](CCC(N)=O)C(=O)N[C@@H](Cc1c[nH]cn1)C(=O)N[C@@H](CCCCN)C(=O)N[C@H](C(=O)N[C@H](C(=O)N[C@@H](CC(=O)O)C(N)=O)[C@@H](C)O)[C@@H](C)CC)[C@@H](C)CC [Compound 4, His-Aib-Glu-Gly-Ser-Phe-Thr-Ser-Glu-Leu-Ala-Thr-Ile-Leu-Asp-Lys(PEG3CH2CO-γGlu-octadecanedioic acid)-Gln-Ala-Ala-Arg-Asp-Phe-Ile-Ala-Trp-Leu-Ile-Gln-His-Lys-Ile-Thr-Asp-NH2] (H-H[Aib]EGSFTSELATILDK([AEEEA-γGlu-C18 diacid])QAARDFIAWLIQHKITD-NH2; N-terminus assumed)
